# Assay results: PubChem BioAssay AID1259407 (Chemical Carcinogenesis Research Information System (CCRIS), 2018)
# Calls of active or inactive are those of the source. No rule for the calls is given here.
# System: CCRIS mutagenicity, Ames/micronucleus/aberration tests
# Assay: CCRIS mutagenicity studies
compound,measurement,setting,value
COc1ccc(N)cc1,mutagenic call,"End Point: IN VITRO CHROMOSOMAL ABERRATIONS, Test System: CHINESE HAMSTER OVARY CELLS, Metabolic Activation: NONE",active; positive
same,mutagenic call,"End Point: IN VITRO CHROMOSOMAL ABERRATIONS, Test System: CHINESE HAMSTER OVARY CELLS, Metabolic Activation: RAT, LIVER, S-9, AROCLOR 1254",active; positive
same,mutagenic call,"End Point: MORPHOLOGICAL TRANSFORMATION, Test System: SYRIAN HAMSTER EMBRYO CELLS (SHE), Metabolic Activation: NONE",active; positive
same,mutagenic call,"Test System: AMES SALMONELLA TYPHIMURIUM, Strain/Indicator: TA98, Metabolic Activation: HAMSTER, LIVER, S-9, AROCLOR 1254 (30%), Method: PREINCUBATION",inactive; negative
same,mutagenic call,"Test System: AMES SALMONELLA TYPHIMURIUM, Strain/Indicator: TA98, Metabolic Activation: HAMSTER, LIVER, S-9, AROCLOR 1254, Method: STANDARD PLATE",inactive; negative
same,mutagenic call,"Test System: AMES SALMONELLA TYPHIMURIUM, Strain/Indicator: TA98, Metabolic Activation: HAMSTER, LIVER, S-9, Method: STANDARD PLATE",inactive; negative
same,mutagenic call,"Test System: AMES SALMONELLA TYPHIMURIUM, Strain/Indicator: TA98, Metabolic Activation: MOUSE, LIVER, S-9, AROCLOR 1254, Method: STANDARD PLATE",inactive; negative
same,mutagenic call,"Test System: AMES SALMONELLA TYPHIMURIUM, Strain/Indicator: TA98, Metabolic Activation: MOUSE, LIVER, S-9, Method: STANDARD PLATE",inactive; negative
same,mutagenic call,"Test System: AMES SALMONELLA TYPHIMURIUM, Strain/Indicator: TA98, Metabolic Activation: NONE, Method: PREINCUBATION",inactive; negative
same,mutagenic call,"Test System: AMES SALMONELLA TYPHIMURIUM, Strain/Indicator: TA98, Metabolic Activation: NONE, Method: STANDARD PLATE",inactive; negative
same,mutagenic call,"Test System: AMES SALMONELLA TYPHIMURIUM, Strain/Indicator: TA98, Metabolic Activation: RAT LIVER S-9, PHENOBARBITAL AND BETA-NAPHTHOFLAVONE, Method: PREINCUBATION",inactive; negative
same,mutagenic call,"Test System: AMES SALMONELLA TYPHIMURIUM, Strain/Indicator: TA98, Metabolic Activation: RAT, LIVER, S-9, AROCLOR 1254 (30%), Method: PREINCUBATION",inactive; negative
same,mutagenic call,"Test System: AMES SALMONELLA TYPHIMURIUM, Strain/Indicator: TA98, Metabolic Activation: RAT, LIVER, S-9, AROCLOR 1254, Method: STANDARD PLATE",inactive; negative
same,mutagenic call,"Test System: AMES SALMONELLA TYPHIMURIUM, Strain/Indicator: TA98, Metabolic Activation: RAT, LIVER, S-9, Method: STANDARD PLATE",inactive; negative
same,mutagenic call,"Test System: AMES SALMONELLA TYPHIMURIUM, Strain/Indicator: TA100, Metabolic Activation: HAMSTER, LIVER, S-9, AROCLOR 1254 (30%), Method: PREINCUBATION",active; positive
same,mutagenic call,"Test System: AMES SALMONELLA TYPHIMURIUM, Strain/Indicator: TA100, Metabolic Activation: NONE, Method: PREINCUBATION",inactive; negative
same,mutagenic call,"Test System: AMES SALMONELLA TYPHIMURIUM, Strain/Indicator: TA100, Metabolic Activation: NONE, Method: STANDARD PLATE",inactive; negative
same,mutagenic call,"Test System: AMES SALMONELLA TYPHIMURIUM, Strain/Indicator: TA100, Metabolic Activation: RAT LIVER S-9, PHENOBARBITAL AND BETA-NAPHTHOFLAVONE, Method: PREINCUBATION",inactive; negative
same,mutagenic call,"Test System: AMES SALMONELLA TYPHIMURIUM, Strain/Indicator: TA100, Metabolic Activation: RAT, LIVER, S-9, AROCLOR 1254 (30%), Method: PREINCUBATION",inactive; negative
same,mutagenic call,"Test System: AMES SALMONELLA TYPHIMURIUM, Strain/Indicator: TA102, Metabolic Activation: NONE, Method: PREINCUBATION",inactive; negative
same,mutagenic call,"Test System: AMES SALMONELLA TYPHIMURIUM, Strain/Indicator: TA102, Metabolic Activation: NONE, Method: STANDARD PLATE",inactive; negative
same,mutagenic call,"Test System: AMES SALMONELLA TYPHIMURIUM, Strain/Indicator: TA102, Metabolic Activation: RAT LIVER S-9, PHENOBARBITAL AND BETA-NAPHTHOFLAVONE, Method: PREINCUBATION",inactive; negative
same,mutagenic call,"Test System: AMES SALMONELLA TYPHIMURIUM, Strain/Indicator: TA104, Metabolic Activation: NONE, Method: PREINCUBATION",inactive; negative
same,mutagenic call,"Test System: AMES SALMONELLA TYPHIMURIUM, Strain/Indicator: TA104, Metabolic Activation: RAT LIVER S-9, PHENOBARBITAL AND BETA-NAPHTHOFLAVONE, Method: PREINCUBATION",inactive; negative
same,mutagenic call,"Test System: AMES SALMONELLA TYPHIMURIUM, Strain/Indicator: TA1535, Metabolic Activation: HAMSTER, LIVER, S-9, AROCLOR 1254, Method: STANDARD PLATE",inactive; negative
same,mutagenic call,"Test System: AMES SALMONELLA TYPHIMURIUM, Strain/Indicator: TA1535, Metabolic Activation: HAMSTER, LIVER, S-9, Method: STANDARD PLATE",inactive; negative
same,mutagenic call,"Test System: AMES SALMONELLA TYPHIMURIUM, Strain/Indicator: TA1535, Metabolic Activation: MOUSE, LIVER, S-9, AROCLOR 1254, Method: STANDARD PLATE",inactive; negative
same,mutagenic call,"Test System: AMES SALMONELLA TYPHIMURIUM, Strain/Indicator: TA1535, Metabolic Activation: MOUSE, LIVER, S-9, Method: STANDARD PLATE",inactive; negative
same,mutagenic call,"Test System: AMES SALMONELLA TYPHIMURIUM, Strain/Indicator: TA1535, Metabolic Activation: NONE, Method: PREINCUBATION",inactive; negative
same,mutagenic call,"Test System: AMES SALMONELLA TYPHIMURIUM, Strain/Indicator: TA1535, Metabolic Activation: NONE, Method: STANDARD PLATE",inactive; negative
same,mutagenic call,"Test System: AMES SALMONELLA TYPHIMURIUM, Strain/Indicator: TA1535, Metabolic Activation: RAT LIVER S-9, PHENOBARBITAL AND BETA-NAPHTHOFLAVONE, Method: PREINCUBATION",inactive; negative
same,mutagenic call,"Test System: AMES SALMONELLA TYPHIMURIUM, Strain/Indicator: TA1535, Metabolic Activation: RAT, LIVER, S-9, AROCLOR 1254, Method: STANDARD PLATE",inactive; negative
